From patent US8143426B2, “IAP inhibitors” (TetraLogic Pharmaceuticals Corporation, priority 2006, dated 2012)

Target: T1, XIAP BIR3 (Homo sapiens, UniProt P98170)
T1 construct: 40 nM of an IAP-BIR3
Assay: Fluorescence polarization binding of IAP antagonists to IAP-BIR3 (competition with AbuRPF-K(5-Fam)-NH2)
Method: The binding affinity of illustrative compounds of the present invention to an IAP was determined substantially as described by Nikolovska-Coleska, Z. et. al. (Analytical Biochemistry (2004), vol. 332:261-273) using a variety of fluorogenic substrates and is reported as a Kd value. Briefly, various concentrations of IAP antagonists were mixed with 5 nM fluorescently labeled peptide (AbuRPF-K(5-Fam)-NH2) and 40 nM of an IAP-BIR3 for 15 min at RT in […] of 0.1M Potassium Phosphate buffer, pH 7.5 containing […] bovine g-globulin. Following incubation, the polarization values (mP) were measured on a Victor2V using a 485 nm excitation filter and a 520 nm emission filter. IC50 values were determined from the plot using nonlinear least-squares analysis using GraphPad Prism.

[1] = Table 2, dimeric IAP antagonists
[2] = Table 1, monomeric IAP antagonists (sugar-modified)
[3] = Table 3, monomeric IAP antagonists (piperidine-substituted)

T1 sequence (P98170 241-356 limits assumed): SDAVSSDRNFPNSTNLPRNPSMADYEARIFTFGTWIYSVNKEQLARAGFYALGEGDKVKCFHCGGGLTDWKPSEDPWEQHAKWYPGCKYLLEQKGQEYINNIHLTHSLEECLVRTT

For CN[C@@H](C)C(=O)N[C@H](C(=O)N1CCC[C@H]1Cc1c(-c2c(C[C@@H]3CCCN3C(=O)[C@@H](NC(=O)[C@H](C)NC)C(C)C)c3cc(F)ccc3n2C2O[C@H](CO)[C@H](O)[C@H](O)[C@H]2O)[nH]c2ccc(F)cc12)C(C)C (some centres unmarked) [AA], the Kd [1] was < 100 nM.
CN[C@@H](C)C(=O)N[C@H](C(=O)N1CCC[C@H]1Cc1c(-c2ccc(F)cc2)n(C2OC[C@@H](O)[C@H](O)[C@H]2O)c2cc(F)ccc12)C(C)C (some centres unmarked) [B] was tested, and the Kd [2] was < 100 nM.
In the case of CN[C@@H](C)C(=O)N[C@H](C(=O)N1CCC[C@H]1Cc1c(-c2c(C[C@@H]3CCCN3C(=O)[C@@H](NC(=O)[C@H](C)NC)C(C)C)c3cc(F)ccc3n2C2O[C@H](CO)[C@@H](O)[C@H](O)[C@H]2O)[nH]c2ccc(F)cc12)C(C)C (some centres unmarked) [CC], the Kd [1] is reported as < 100 nM.
In the case of CNC(C)C(=O)NC(C(=O)N1CCCC1Cc1c(-c2ccc(F)cc2)n(C2OCC(O)C(O)C2O)c2cc(F)ccc12)C(C)(C)C (centres unmarked) [Compound A], the Kd [2] is reported as < 100 nM.
For CNC(C)C(=O)NC(C(=O)N1CCCC1Cc1c(-c2c(CC3CCCN3C(=O)C(NC(=O)C(C)NC)C(C)C)c3cc(F)ccc3n2C2OC(C)C(O)C(O)C2O)[nH]c2ccc(F)cc12)C(C)C (centres unmarked) [DD], the Kd [1] was < 100 nM.
In the case of CNC(C)C(=O)NC(C(=O)N1CCCC1Cc1c(-c2c(CC3CCCN3C(=O)C(NC(=O)C(C)NC)C(C)OC)c3ccc(F)cc3n2C2OC(C)C(O)C(O)C2O)[nH]c2cc(F)ccc12)C(C)OC (centres unmarked) [EE], the Kd [1] is reported as < 100 nM.
In the case of CNC(C)C(=O)NC(C(=O)N1CC(O)CC1Cc1c(-c2c(CC3CC(O)CN3C(=O)C(NC(=O)C(C)NC)C(C)OC)c3ccc(F)cc3n2C2OC(C)C(O)C(O)C2O)[nH]c2cc(F)ccc12)C(C)OC (centres unmarked) [FF], the Kd [1] is reported as < 100 nM.
In the case of CNC(C)C(=O)NC(C(=O)N1CCCC1Cc1cn(C2OC(C)C(O)C(O)C2O)c2cc(F)ccc12)C(C)(C)C (centres unmarked) [F], the Kd [2] is reported as < 100 nM.
CNC(C)C(=O)NC(C(=O)N1CCCC1Cc1cn(C2OC(C)C(O)C(O)C2O)c2cc(F)ccc12)C1CCCCC1 (centres unmarked) [G] was tested, and the Kd [2] was < 100 nM.
In the case of CN[C@@H](C)C(=O)N[C@H](C(=O)N1CCCC1Cc1c(-c2ccc(F)cc2)n(C2CCNCC2)c2cc(F)ccc12)C(C)(C)C (some centres unmarked) [HH], the Kd [3] is reported as < 100 nM.
CNC(C)C(=O)NC(C(=O)N1CCCC1Cc1cn(C2OC(C)C(O)C(O)C2O)c2cc(F)ccc12)C(C)C (centres unmarked) [H] was tested, and the Kd [2] was < 100 nM.
With CN[C@@H](C)C(=O)N[C@H](C(=O)N1CCC[C@H]1Cc1c(-c2ccc(F)cc2)n(C2CCNCC2)c2cc(F)ccc12)[C@@H](C)OC [II] the Kd [3] was < 100 nM.
CC[C@H](NC)C(=O)N[C@H](C(=O)N1CCC[C@H]1Cc1c(-c2ccc(F)cc2)n(C2CCNCC2)c2cc(F)ccc12)[C@@H](C)OC [JJ] was tested, and the Kd [3] was < 100 nM.
With CN[C@H](C(=O)N[C@H](C(=O)N1CCC[C@H]1Cc1c(-c2ccc(F)cc2)n(C2CCNCC2)c2cc(F)ccc12)[C@@H](C)OC)C1CC1 [KK] the Kd [3] was 100 to 1000 nM.
CN[C@@H](C)C(=O)N[C@H](C(=O)N1C[C@@H](O)C[C@H]1Cc1c(-c2ccc(F)cc2)n(C2CCNCC2)c2cc(F)ccc12)C(C)(C)C [LL] was tested, and the Kd [3] was < 100 nM.
In the case of CCN[C@@H](C)C(=O)N[C@H](C(=O)N1C[C@@H](O)C[C@H]1Cc1c(-c2ccc(F)cc2)n(C2CCNCC2)c2cc(F)ccc12)C(C)(C)C [MM], the Kd [3] is reported as 100 to 1000 nM.
CN[C@@H](CO)C(=O)N[C@H](C(=O)N1C[C@@H](O)C[C@H]1Cc1c(-c2ccc(F)cc2)n(C2CCNCC2)c2cc(F)ccc12)C(C)(C)C [NN] was tested, and the Kd [3] was 100 to 1000 nM.
For CN[C@@H](C)C(=O)N[C@H](C(=O)N1CCC[C@H]1Cc1cn(C2OC[C@@H](O)[C@H](O)[C@H]2O)c2cc(F)ccc12)C(C)(C)C (some centres unmarked) [N], the Kd [2] was < 100 nM.
In the case of CN[C@H](C(=O)N[C@H](C(=O)N1C[C@@H](O)C[C@H]1Cc1c(-c2ccc(F)cc2)n(C2CCNCC2)c2cc(F)ccc12)C(C)(C)C)C1CC1 [OO], the Kd [3] is reported as > 10000 nM.
For CN[C@@H](C)C(=O)N[C@H](C(=O)N1CCC[C@H]1Cc1c(-c2ccc(F)cc2)n(C2O[C@@H](C)[C@@H](O)[C@@H](O)[C@@H]2O)c2cc(F)ccc12)[C@@H](C)OC (some centres unmarked) [O], the Kd [2] was < 100 nM.
With CN[C@@H](C)C(=O)N[C@H](C(=O)N1C[C@@H](O)C[C@H]1Cc1c(-c2ccc(F)cc2)n(C2CCNCC2)c2cc(F)ccc12)[C@@H](C)OC [PP] the Kd [3] was < 100 nM.
For CCN[C@@H](C)C(=O)N[C@H](C(=O)N1C[C@@H](O)C[C@H]1Cc1c(-c2ccc(F)cc2)n(C2CCNCC2)c2cc(F)ccc12)[C@@H](C)OC [QQ], the Kd [3] was < 100 nM.
With CC[C@H](NC)C(=O)N[C@H](C(=O)N1C[C@@H](O)C[C@H]1Cc1c(-c2ccc(F)cc2)n(C2CCNCC2)c2cc(F)ccc12)[C@@H](C)OC [RR] the Kd [3] was < 100 nM.
Molecule CN[C@H](C(=O)N[C@H](C(=O)N1C[C@@H](O)C[C@H]1Cc1c(-c2ccc(F)cc2)n(C2CCNCC2)c2cc(F)ccc12)[C@@H](C)OC)C1CC1 [SS] has a Kd [3] of 100 to 1000 nM.
In the case of CNC(C)C(=O)NC(C(=O)N1CC(O)CC1Cc1c(-c2ccc(F)cc2)n(C2OC(C)C(O)C(O)C2O)c2cc(F)ccc12)C(C)(C)C (centres unmarked) [T], the Kd [2] is reported as < 100 nM.
In the case of CNC(C)C(=O)NC(C(=O)N1CC(O)CC1Cc1c(-c2ccc(F)cc2)n(C2OC(C)C(O)C(O)C2O)c2cc(F)ccc12)C(C)OC (centres unmarked) [U], the Kd [2] is reported as < 100 nM.
CN[C@@H](C)C(=O)N[C@H](C(=O)N1CCCC1Cc1c(-c2c(C[C@@H]3CCCN3C(=O)[C@@H](NC(=O)[C@H](C)NC)C(C)C)c3ccc(F)cc3n2C2O[C@@H](C)[C@@H](O)[C@@H](O)[C@@H]2O)[nH]c2cc(F)ccc12)C(C)C (some centres unmarked) [V] was tested, and the Kd [1] was < 100 nM.
CC(C)C(NC(=O)CN)C(=O)N1CCCC1Cc1c(-c2c(CC3CCCN3C(=O)C(NC(=O)CN)C(C)C)c3ccc(F)cc3n2C2OC(C)C(O)C(O)C2O)[nH]c2cc(F)ccc12 (centres unmarked) [W] gave a Kd [1] of 100 to 1000 nM.
CN[C@@H](C)C(=O)N[C@H](C(=O)N1CCC[C@H]1Cc1c(-c2c(C[C@@H]3CCCN3C(=O)[C@@H](NC(=O)[C@H](C)NC)C(C)C)c3ccc(F)cc3n2C2OC[C@@H](O)[C@H](O)[C@H]2O)[nH]c2cc(F)ccc12)C(C)C (some centres unmarked) [Y] was tested, and the Kd [1] was < 100 nM.
